# ChEMBL document CHEMBL4184137, “Lysine Deacetylase Inhibitors in Parasites: Past, Present, and Future Perspectives” (J Med Chem, 2017)
# How the values were obtained:
# [1] = target: T1, Histone deacetylase (Plasmodium falciparum) (UniProt Q9XYC7); assay: Inhibition of recombinant HDAC1 in recombinant Plasmodium falciparum at 1 uM using Ac-RGK(Ac)-AMC fluorogenic peptide as substrate preincubated for 1 hr followed by substrate addition measured after 10 min by fluorescence assay
# T1 sequence (whole entry): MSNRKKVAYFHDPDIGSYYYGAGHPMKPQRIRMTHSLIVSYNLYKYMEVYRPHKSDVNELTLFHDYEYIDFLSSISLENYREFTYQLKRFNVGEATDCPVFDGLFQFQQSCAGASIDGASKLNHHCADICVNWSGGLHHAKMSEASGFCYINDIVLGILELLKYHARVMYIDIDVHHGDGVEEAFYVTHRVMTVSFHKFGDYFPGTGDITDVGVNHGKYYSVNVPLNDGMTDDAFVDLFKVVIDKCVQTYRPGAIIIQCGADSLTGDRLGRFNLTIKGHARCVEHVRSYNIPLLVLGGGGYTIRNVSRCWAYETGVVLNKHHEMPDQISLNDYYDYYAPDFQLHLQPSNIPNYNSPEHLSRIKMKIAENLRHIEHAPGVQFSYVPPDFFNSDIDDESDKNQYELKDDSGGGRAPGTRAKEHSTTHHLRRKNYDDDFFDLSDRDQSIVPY
# [2] = Selectivity index, ratio of IC50 for HEK293 cells to IC50 for Trypanosoma brucei brucei; type: toxicity; conditions: human, read-out: Selectivity Index
# Histone deacetylase = target: T2, Histone deacetylase (Plasmodium falciparum, UniProt Q9XYC7); assay: Inhibition of HDAC1 in Plasmodium falciparum 3D7 nuclear extract using Ac-RGK(Ac)-AMC fluorogenic peptide as substrate preincubated for 1 hr followed by substrate addition measured after 10 min by fluorescence assay
# T2 sequence (Q9XYC7 whole entry): T1 sequence (whole entry)
# [3] = Selectivity index, ratio of IC50 for human NFF cells to IC50 for Trypanosoma brucei brucei; type: toxicity; conditions: read-out: Selectivity Index
# [4] = Selectivity index, ratio of IC50 for HEK293 cells to IC50 for Plasmodium falciparum; type: toxicity; conditions: human, read-out: Ratio IC50
# [5] = Selectivity index, ratio of IC50 for human NFF cells to IC50 for Plasmodium falciparum; type: toxicity; conditions: read-out: Ratio IC50
# Plasmodium falciparum [6] = assay: Antimalarial activity against Plasmodium falciparum using Malstat reagent by parasite lactate dehydrogenase assay; type: functional, organism-based
# [7] = Selectivity index, ratio of IC50 for African green monkey Vero cells to IC50 for Plasmodium falciparum; type: toxicity; conditions: read-out: Ratio IC50
# Vero = assay: Cytotoxicity against African green monkey Vero cells by neutral red assay; type: cell-based; conditions: Chlorocebus sabaeus
# Schistosoma mansoni [8] = assay: Antiparasitic activity against Schistosoma mansoni assessed cell viability at 20 uM after 4 days; type: functional
# Schistosoma mansoni [9] = assay: Antiparasitic activity against Schistosoma mansoni assessed as cumulative egg reduction at 20 uM; type: functional; parameters: scale not given: the % may be the effect or the level left
# [10] = Inhibition of recombinant Trypanosoma cruzi Sir2rp3
# Schistosoma mansoni [11] = assay: Antiparasitic activity against Schistosoma mansoni assessed as pairing at 20 uM after 5 days relative to control; type: functional
# Trypanosoma cruzi = assay: Antitrypanosomal activity against epimastigotes of Trypanosoma cruzi […] by Alamar Blue assay; type: functional, organism-based
# Plasmodium falciparum [12] = assay: Antimalarial activity against Plasmodium falciparum infected in human erythrocytes after 24 hrs by microbeta scintillation counting-based [3H]-hypoxanthine incorporation assay; type: functional, organism-based
# [13] = Selectivity index, ratio of IC50 for human NHDF cells to IC50 for Plasmodium falciparum; type: toxicity; conditions: read-out: Ratio IC50
# [14] = Selectivity index, ratio of IC50 for human PTC cells to IC50 for Plasmodium falciparum; type: toxicity; conditions: read-out: Ratio IC50
# [15] = Selectivity index, ratio of IC50 for HUVEC to IC50 for Plasmodium falciparum; type: toxicity; conditions: human, read-out: Ratio IC50
# Toxoplasma gondii = assay: Antiparasitic activity against Toxoplasma gondii; type: functional, organism-based
# Plasmodium falciparum [16] = assay: Gametocytocidal activity against transgenic GFP-fused Plasmodium falciparum NF54 early stage gametocytes after 72 hrs by Mitotracker Red CMH2XRos staining based microscopic method; type: functional, organism-based; conditions: NF54, 72 h
# Plasmodium falciparum [17] = assay: Gametocytocidal activity against transgenic GFP-fused Plasmodium falciparum NF54 late stage gametocytes after 72 hrs by Mitotracker Red CMH2XRos staining based microscopic method; type: functional, organism-based; conditions: NF54, 72 h
# NFF = assay: Cytotoxicity against human NFF cells after 72 hrs by SRB assay; type: cell-based
# Plasmodium falciparum [18] = assay: Gametocytocidal activity against transgenic GFP-fused Plasmodium falciparum NF54 […] gametocytes after 72 hrs by Mitotracker Red CMH2XRos staining-based confocal microscopic method; type: functional, organism-based; conditions: NF54, 72 h
# [19] = Selectivity index, ratio of IC50 for human NFF cells to IC50 for transgenic GFP-fused Plasmodium falciparum NF54 […] gametocyte; type: toxicity; conditions: read-out: Ratio IC50
# Plasmodium falciparum [20] = assay: Antimalarial activity against asexual-stage of Plasmodium falciparum 3D7 after 24 hrs by microbeta scintillation counting-based [3H]-hypoxanthine incorporation assay; type: functional, organism-based
# [21] = Selectivity index, ratio of IC50 for human NFF cells to IC50 for asexual-stage of Plasmodium falciparum 3D7; type: toxicity; conditions: read-out: Ratio IC50
compound,measurement,setting,value
C/C=C1\NC(=O)[C@H]2CSSCC/C=C/[C@H](CC(=O)N[C@H](C(C)C)C(=O)N2)OC(=O)[C@H](C(C)C)NC1=O [ROMIDEPSIN],inhibition,[1],48%
same,selectivity ratio,[2],< 1
same,IC50,Histone deacetylase,0.0009 µM
same,selectivity ratio,[3],< 1
same,selectivity ratio,[4],< 1
same,selectivity ratio,[5],< 1
Cn1cc(C(=O)Cc2ccccc2)cc1/C=C/C(=O)NO,IC50,Plasmodium falciparum [6],1.2 to 4 µM
same,selectivity ratio,[7],5 to 17
same,IC50,Vero,> 20 µM
CC(C(=O)Nc1cccc(/N=C/c2c(O)ccc3ccccc23)c1)c1ccccc1 (configuration not stated) [SALERMIDE],Activity,Schistosoma mansoni [8],100%
same,Activity,Schistosoma mansoni [9],95%
same,IC50,[10],1 µM
same,Activity,Schistosoma mansoni [11],100%
same,EC50,Trypanosoma cruzi,10.6 µM
CCCCc1nc2cc(/C=C/C(=O)NO)ccc2n1CCN(CC)CC [PRACINOSTAT],IC50,Plasmodium falciparum [12],0.08 to 0.15 µM
same,selectivity ratio,[13],4 to 1250
same,selectivity ratio,[14],4 to 1250
same,selectivity ratio,[15],4 to 1250
same,selectivity ratio,[5],4 to 1250
CCC(=O)CCCCC[C@@H]1NC(=O)[C@H]2CCCCN2C(=O)[C@H]([C@@H](C)CC)NC(=O)[C@H](Cc2cn(OC)c3ccccc23)NC1=O [APICIDIN],IC50,Toxoplasma gondii,0.013 to 0.015 µM
O=C(CCCCCCC(=O)Nc1ccccc1)NO [VORINOSTAT],IC50,Plasmodium falciparum [16],1.68 to 6.65 µM
same,IC50,Plasmodium falciparum [17],1.68 to 6.65 µM
CC(C)(C)c1ccc(NC(=O)NOCCCCCC(=O)NO)cc1,IC50,NFF,4.9 µM
same,IC50,Plasmodium falciparum [18],3.45 µM
same,selectivity ratio,[19],2
same,IC50,Plasmodium falciparum [20],0.16 µM
same,selectivity ratio,[21],31
